From US20050004126A1 (priority 2001, published 2005) come the findings set out here.

Molecules are shown by their SMILES.

For the first test, the target named is MMP-13CD (catalytic domain of collagenase 3) (Homo sapiens, UniProt P45452). Put plainly: Thiopeptolide hydrolysis assay, MMP-13.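 Further: inhibition of enzymatic thiopeptolide substrate cleavage (100 µM) in pH 6.0 MES buffer with CaCl2 and DTNB, comparing hydrolysis with versus without inhibitor.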 The note with it: MMP13 IC50 μM, Table IVb.
Protocol: They measure the amount by which a test compound reduces the hydrolysis of a thiopeptolide substrate caused by a matrix metalloproteinase enzyme.
Thiopeptolide substrates show virtually no decomposition or hydrolysis in the absence of a matrix metalloproteinase enzyme. A typical thiopeptolide substrate commonly utilized for assays is Ac-Pro-Leu-Gly-thioester-Leu-Leu-Gly-OEt. A 100 μL assay mixture will contain 50 mM of 2-morpholinoethane sulfonic acid monohydrate (MES, pH 6.0) 10 mM CaCl2, 100 μM thiopeptolide substrate, and 1 mM 5,5′-dithio-bis-(2-nitro-benzoic acid) (DTNB). […] Assays are carried out with and without matrix metalloproteinase inhibitor compounds, and the amount of hydrolysis is compared for a determination of inhibitory activity of the test compounds.
As for `CCn1c(=O)n(Cc2cccc(F)c2)c(=O)c2cc(C(=O)NCc3ccncc3)ccc21`, the 50% inhibitory concentration (IC50) (usually the concentration that inhibits the measured activity by half) was determined as 0.1 µM.
On the same count and under the same terms, to `CCn1c(=O)n(Cc2cccc(F)c2)c(=O)c2cc(C(=O)NCc3cccnc3)ccc21` belongs 0.36 µM.
Still for that read-out and setting: to `COc1ccc(CNC(=O)c2ccc3c(c2)c(=O)n(CCCc2ccccc2)c(=O)n3C)cc1` belongs 0.59 µM; to `COc1ccc(CNC(=O)c2ccc3c(c2)c(=O)n(Cc2ccc(-c4noc(=O)[nH]4)cc2)c(=O)n3C)cc1`, 0.0015 µM.
With `COc1ccc(CNC(=O)c2ccc3c(c2)c(=O)n(Cc2ccc(S(N)(=O)=O)cc2)c(=O)n3C)cc1`, half-maximal inhibition (IC50) required 0.008 µM.
On the same count and under the same terms, next, `COc1ccc(CNC(=O)c2ccc3c(c2)c(=O)n(C/C=C/c2cccnc2)c(=O)n3C)cc1`: 0.095 µM.
Still for that read-out and setting: next, `COc1ccc(CNC(=O)c2ccc3c(c2)c(=O)n(C/C=C/c2ccncc2)c(=O)n3C)cc1`: 0.035 µM; `COc1ccc(CNC(=O)c2ccc3c(c2)c(=O)n(Cc2cccnc2)c(=O)n3C)cc1`: 0.046 µM.
Still for that read-out and setting: to `COc1ccc(CNC(=O)c2ccc3c(c2)c(=O)n(CC2CCCN(C)C2)c(=O)n3C)cc1` (stereo not shown) belongs 5.4 µM.
`CC(c1cccc2ccccc12)n1c(=O)c2cc(C(=O)NCc3ccc4c(c3)OCO4)ccc2n(C)c1=O` (stereo not shown) displayed an IC50 of 9.4 µM.
Consider `COc1ccc(CNC(=O)c2ccc3c(c2)c(=O)n(CCN2CCOCC2)c(=O)n3C)cc1`, for which the IC50 turned out to be 9.3 µM.
The same measure, in the same setting: next, `CNS(=O)(=O)c1ccc(Cn2c(=O)c3cc(C(=O)NCc4ccc(OC)cc4)ccc3n(C)c2=O)cc1`: 0.0044 µM; `COc1ccc(CNC(=O)c2ccc3c(c2)c(=O)n(Cc2ccc([N+](=O)[O-])cc2)c(=O)n3C)cc1`: 0.014 µM; `COc1ccc(CNC(=O)c2ccc3c(c2)c(=O)n(Cc2ccc(C4(C(=O)O)CC4)cc2)c(=O)n3C)cc1`: 0.0033 µM.
Still for that read-out and setting: next, `COc1ccc(CNC(=O)c2ccc3c(c2)c(=O)n(Cc2ccc(C(=O)O)c(F)c2)c(=O)n3C)cc1`: 0.001 µM; `COc1ccc(CNC(=O)c2ccc3c(c2)c(=O)n(Cc2ccc(C(=O)OCCN(C)C)c(OC)c2)c(=O)n3C)cc1`: 0.5 µM.
On the same count and under the same terms, next, `COc1ccc(CNC(=O)c2ccc3c(c2)c(=O)n(CC2CCCCC2)c(=O)n3C)cc1`: 0.042 µM; `COc1ccc(CNC(=O)c2ccc3c(c2)c(=O)n(CC2CC2)c(=O)n3C)cc1`: 0.95 µM; `COc1ccc(CNC(=O)c2ccc3c(c2)c(=O)n(CCO)c(=O)n3C)cc1`: 6.35 µM.
`COCCn1c(=O)c2cc(C(=O)NCc3ccc(OC)cc3)ccc2n(C)c1=O`: the IC50 was determined as 1.35 µM.
Still for that read-out and setting: next, `CCN(CC)c1ccc(C(=O)Cn2c(=O)c3cc(C(=O)NCc4ccc(OC)cc4)ccc3n(C)c2=O)cc1`: 3.64 µM; `COc1ccc(CNC(=O)c2ccc3c(c2)c(=O)n(Cc2ccc(F)c(Cl)c2)c(=O)n3C)cc1`: 0.012 µM; `COc1ccc(CNC(=O)c2ccc3c(c2)c(=O)n(Cc2cccc(C#N)c2)c(=O)n3C)cc1`: 0.027 µM.
On the same count and under the same terms, next, `Cn1c(=O)n(Cc2cccc(F)c2)c(=O)c2cc(C(=O)NCc3ccncc3)ccc21`: 0.017 µM; `COc1cc(CNC(=O)c2ccc3c(c2)c(=O)n(Cc2cccc(F)c2)c(=O)n3C)ccn1`: 0.0058 µM; `Cn1c(=O)n(Cc2cccc(F)c2)c(=O)c2cc(C(=O)NCc3cccnc3)ccc21`: 0.067 µM.
The same measure, in the same setting: to `COc1ccc(CNC(=O)c2ccc3c(c2)c(=O)n(Cc2cccc(F)c2)c(=O)n3C)cc1` belongs 0.0079 µM; to `COc1cccc(CNC(=O)c2ccc3c(c2)c(=O)n(Cc2cccc(F)c2)c(=O)n3C)c1`, 0.021 µM; to `COc1ccc(CNC(=O)c2ccc3c(c2)c(=O)n(Cc2cccc(OC)c2)c(=O)n3C)cc1`, 0.023 µM.
Compound `Cn1c(=O)n(Cc2ccc(F)c(Cl)c2)c(=O)c2cc(C(=O)NCc3ccncc3)ccc21` yielded an IC50 of 0.026 µM.
Still for that read-out and setting: to `Cn1c(=O)n(Cc2ccc(F)c(F)c2)c(=O)c2cc(C(=O)NCc3cccnc3)ccc21` belongs 0.067 µM; to `Cn1c(=O)n(Cc2ccc(F)c(F)c2)c(=O)c2cc(C(=O)NCc3ccncc3)ccc21`, 0.032 µM; to `COc1ccc(CNC(=O)c2ccc3c(c2)c(=O)n(Cc2ccc(F)c(F)c2)c(=O)n3C)cc1`, 0.0098 µM.
On the same count and under the same terms, to `COc1ccc(CNC(=O)c2ccc3c(c2)c(=O)n(Cc2ccc(N)cc2)c(=O)n3C)cc1` belongs 0.0093 µM; to `COc1ccc(CNC(=O)c2ccc3c(c2)c(=O)n(Cc2ccc(Br)cc2)c(=O)n3C)cc1`, 0.013 µM.
In the case of `COc1cc(CNC(=O)c2ccc3c(c2)c(=O)n(Cc2ccc(Br)cc2)c(=O)n3C)ccn1`, the IC50 was 0.0076 µM.
Still for that read-out and setting: next, `COc1cccc(CNC(=O)c2ccc3c(c2)c(=O)n(Cc2ccc(Cl)cc2)c(=O)n3C)c1`: 0.0043 µM.
For `COc1cc(CNC(=O)c2ccc3c(c2)c(=O)n(Cc2ccc(Cl)cc2)c(=O)n3C)ccn1`, the IC50 amounted to 0.011 µM.
Still for that read-out and setting: next, `Cn1c(=O)n(Cc2ccc(Cl)cc2)c(=O)c2cc(C(=O)NCc3cccnc3)ccc21`: 0.093 µM; `Cn1c(=O)n(Cc2ccc(Cl)cc2)c(=O)c2cc(C(=O)NCc3ccncc3)ccc21`: 0.053 µM; `COc1ccc(CNC(=O)c2ccc3c(c2)c(=O)n(Cc2ccc(C#N)cc2)c(=O)n3C)cc1`: 0.008 µM.
Still for that read-out and setting: next, `COc1ccc(CNC(=O)c2ccc3c(c2)c(=O)n(Cc2ccc(C(=O)N(C)C)cc2)c(=O)n3C)cc1`: 0.012 µM; `COc1ccc(CNC(=O)c2ccc3c(c2)c(=O)n(Cc2ccc(CC(=O)N(C)C)cc2)c(=O)n3C)cc1`: 0.008 µM.
Still for that read-out and setting: to `COc1ccc(CNC(=O)c2ccc3c(c2)c(=O)n(Cc2ccc(S(=O)(=O)N(C)C)cc2)c(=O)n3C)cc1` belongs 0.007 µM; to `Cn1c(=O)n(Cc2ccc(F)cc2)c(=O)c2cc(C(=O)NCc3ccncc3)ccc21`, 0.071 µM; to `COc1cc(CNC(=O)c2ccc3c(c2)c(=O)n(Cc2ccc(F)cc2)c(=O)n3C)ccn1`, 0.011 µM.
Consider `COc1cccc(CNC(=O)c2ccc3c(c2)c(=O)n(Cc2ccc(F)cc2)c(=O)n3C)c1`, for which the IC50 was found to be 0.0046 µM.
Same read-out and setting: to `Cn1c(=O)n(Cc2ccc(F)cc2)c(=O)c2cc(C(=O)NCc3cccnc3)ccc21` belongs 0.12 µM.
`COc1ccc(CNC(=O)c2ccc3c(c2)c(=O)n(Cc2ccc(F)cc2)c(=O)n3C)cc1` gave an IC50 of 0.0145 µM.
In turn, `COc1ccc(CNC(=O)c2ccc3c(c2)c(=O)n(Cc2ccc(S(C)(=O)=O)cc2)c(=O)n3C)cc1` returned an IC50 of 0.0125 µM.
On the same count and under the same terms, to `COc1ccc(CNC(=O)c2ccc3c(c2)c(=O)n(Cc2ccc(S(=O)(=O)NCCN(C)C)cc2)c(=O)n3C)cc1` belongs 0.055 µM; to `COc1ccc(CNC(=O)c2ccc3c(c2)c(=O)n(Cc2cccc(C(=O)O)c2)c(=O)n3C)cc1`, 0.018 µM; to `Cn1c(=O)n(Cc2ccc(C(=O)O)cc2)c(=O)c2cc(C(=O)NCc3ccc(O)cc3)ccc21`, 0.002 µM.
Still for that read-out and setting: next, `COc1ccc(CNC(=O)c2ccc3c(c2)c(=O)n(CC=CC(=O)O)c(=O)n3C)cc1`: 1.4 µM; `COc1ccc(CNC(=O)c2ccc3c(c2)c(=O)n(Cc2ccc(C(=O)OCCN(C)C)c(C)c2)c(=O)n3C)cc1`: 0.11 µM; `COc1ccc(CNC(=O)c2ccc3c(c2)c(=O)n(CCCC(=O)O)c(=O)n3C)cc1`: 1.15 µM.
Turning to `COc1ccc(CNC(=O)c2ccc3c(c2)c(=O)n(Cc2ccc(C(=O)OCOC(=O)C(NC(=O)C(N)C(C)C)C(C)C)cc2)c(=O)n3C)cc1` (stereo not shown), the IC50 was 0.039 µM.
On the same count and under the same terms, next, `COc1ccc(CNC(=O)c2ccc3c(c2)c(=O)n(Cc2ccc(C(=O)OCCN(C)C)cc2)c(=O)n3C)cc1`: 0.037 µM.
`COc1ccc(CNC(=O)c2ccc3c(c2)c(=O)n(Cc2ccc(C(=O)OCC(=O)OC(C)(C)C)cc2)c(=O)n3C)cc1` displayed an IC50 of 0.088 µM.
Still for that read-out and setting: to `COc1ccc(CNC(=O)c2ccc3c(c2)c(=O)n(Cc2ccc(C(=O)O)s2)c(=O)n3C)cc1` belongs 0.0084 µM; to `COc1ccc(CNC(=O)c2ccc3c(c2)c(=O)n(Cc2ccc(C(=O)O)o2)c(=O)n3C)cc1`, 0.057 µM.
In turn, `CCOC(=O)CCCn1c(=O)c2cc(C(=O)NCc3ccc(OC)cc3)ccc2n(C)c1=O` returned an IC50 of 2.55 µM.
On the same count and under the same terms, next, `CCOC(=O)Cn1c(=O)c2cc(C(=O)NCc3ccc(OC)cc3)ccc2n(C)c1=O`: 0.65 µM.
The same measure, in the same setting: next, `COC(=O)c1cccc(Cn2c(=O)c3cc(C(=O)NCc4ccc(OC)cc4)ccc3n(C)c2=O)c1`: 0.12 µM; `COC(=O)CCn1c(=O)c2cc(C(=O)NCc3ccc(OC)cc3)ccc2n(C)c1=O`: 2.1 µM; `COC(=O)c1ccc(Cn2c(=O)c3cc(C(=O)NCc4ccc(OC)cc4)ccc3n(C)c2=O)o1`: 0.29 µM.
Still for that read-out and setting: next, `COC(=O)c1ccc(Cn2c(=O)c3cc(C(=O)NCc4ccc(OC)cc4)ccc3n(C)c2=O)s1`: 0.021 µM; `COC(=O)Cc1ccc(Cn2c(=O)c3cc(C(=O)NCc4ccc(OC)cc4)ccc3n(C)c2=O)cc1`: 0.0034 µM.
As to `COc1ccc(CNC(=O)c2ccc3c(c2)c(=O)n(-c2ccc(CC(=O)O)cc2)c(=O)n3C)cc1`, 8 µM corresponded to half-maximal inhibition (IC50).
Same read-out and setting: to `COc1ccc(CNC(=O)c2ccc3c(c2)c(=O)n(Cc2ccc(CC(=O)O)cc2)c(=O)n3C)cc1` belongs 0.0022 µM; to `COC(=O)/C=C/Cn1c(=O)c2cc(C(=O)NCc3ccc(OC)cc3)ccc2n(C)c1=O`, 0.315 µM.
The same measure, in the same setting: next, `COc1ccc(CNC(=O)c2ccc3c(c2)c(=O)n(Cc2ccc(C4(C(=O)OC(C)(C)C)CC4)cc2)c(=O)n3C)cc1`: 0.0665 µM.

Staying with this test, now noted: MMP13 IC50 (nM), Table II.
`CCOc1ccc(C(=O)NCc2cccc(OC)c2)cc1C(=O)NCc1cccc(OC)c1` registered an IC50 of 1.83 µM.
The same measure, in the same setting: to `COc1ccc(CNC(=O)c2ccc(OC)c(C(=O)NCc3ccncc3)c2)cc1` belongs 1.5 µM.
As to `COc1ccc(C(=O)NCc2ccc3c(c2)OCO3)cc1C(=O)NCCOc1ccccc1`, inhibition was half-maximal at 4.4 µM (IC50).
The same measure, in the same setting: next, `COc1ccc(CNC(=O)c2ccc(OC)c(C(=O)NCc3ccccc3)c2)cc1` [listing 1 of 2 here]: 0.43 µM; `COc1cccc(CNC(=O)c2cccc(C(=O)NCc3cccc([N+](=O)[O-])c3)c2)c1`: 2.1 µM; `COc1ccc(C(=O)NCCOc2ccccc2)cc1C(=O)NCc1ccc2c(c1)OCO2`: 3.1 µM.
On the same count and under the same terms, next, `COc1ccc(CNC(=O)c2ccc(OC)c(C(=O)NCc3ccccc3)c2)cc1` [listing 2 of 2 here]: 0.81 µM.
